Where two headings read alike, the source gives them in different places.
Columns and labels:
[1] = molecular target: T1, hOX1R (orexin-1 receptor) (Rattus norvegicus, UniProt P56718); test: FLIPR Ca2+ Flux Assay, hOX1R FLIPR; assay type: cell-based; settings: CHO cells, 70 pM Ala-6,12 human orexin-A agonist
Description: (§1) In a typical experiment the OX1 and OX2 receptor antagonistic activity of the compounds of the present invention was determined in accordance with the following experimental method. For intracellular calcium measurements, Chinese hamster ovary (CHO) cells expressing the rat orexin-1 receptor or the human orexin-2 receptor, are grown in Iscove's modified DMEM containing 2 mM L-glutamine, […], 1% hypoxanthine-thymidine supplement, 100 U/ml penicillin, 100 μg/ml streptomycin and 10% heat-inactivated fetal calf serum (FCS). The cells are seeded at 20,000 cells/well into Becton-Dickinson black 384-well clear bottom sterile plates coated with poly-D-lysine. All reagents were from GIBCO-Invitrogen Corp. The seeded plates are incubated overnight at 37° C. and 5% CO2. Ala-6,12 human orexin-A as the agonist is prepared as a 1 mM stock solution in 1% bovine serum albumin (BSA) and diluted in assay buffer (HBSS containing 20 mM HEPES, 0.1% BSA and 2.5 mM probenecid, pH7.4) for use in the assay at a final concentration of 70 pM. Test compounds are prepared as 10 mM stock solution in DMSO, then diluted in 384-well plates, first in DMSO, then assay buffer. On the day of the assay, cells are washed 3 times with 100 μl assay buffer and then incubated for 60 min (37° C., 5% CO2) in 60 μl assay buffer containing 1 μM Fluo-4AM ester, 0.02% pluronic acid, and 1% BSA. The dye loading solution is then aspirated and cells are washed 3 times with 100 μl assay buffer. 30 μl of that same buffer is left in each well. Within the Fluorescent Imaging Plate Reader (FLIPR, Molecular Devices), test compounds are added to the plate in a volume of 25 μl, incubated for 5 min and finally 25 μl of agonist is added. Fluorescence is measured for each well at 1 second intervals for 5 minutes and the height of each fluorescence peak is compared to the height of the fluorescence peak induced by 70 pM Ala-6,12 orexin-A with buffer in place of antagonist. […] Alternatively, compound potency can be assessed by a radioligand binding assay (described in Bergman et. al. Bioorg. Med. Chem. Lett. 2008, 18, 1425-1430) in which the inhibition constant (Ki) is determined in membranes prepared from CHO cells expressing either the OX1 or OX2 receptor. The intrinsic orexin receptor antagonist activity of a compound which may be used in the present invention may be determined by these assays.

[2] = molecular target: T2, human orexin-2 receptor (Homo sapiens (Human), UniProt O43614); test: radioligand binding assay, hOX2R BIND
T2 sequence (O43614 whole entry): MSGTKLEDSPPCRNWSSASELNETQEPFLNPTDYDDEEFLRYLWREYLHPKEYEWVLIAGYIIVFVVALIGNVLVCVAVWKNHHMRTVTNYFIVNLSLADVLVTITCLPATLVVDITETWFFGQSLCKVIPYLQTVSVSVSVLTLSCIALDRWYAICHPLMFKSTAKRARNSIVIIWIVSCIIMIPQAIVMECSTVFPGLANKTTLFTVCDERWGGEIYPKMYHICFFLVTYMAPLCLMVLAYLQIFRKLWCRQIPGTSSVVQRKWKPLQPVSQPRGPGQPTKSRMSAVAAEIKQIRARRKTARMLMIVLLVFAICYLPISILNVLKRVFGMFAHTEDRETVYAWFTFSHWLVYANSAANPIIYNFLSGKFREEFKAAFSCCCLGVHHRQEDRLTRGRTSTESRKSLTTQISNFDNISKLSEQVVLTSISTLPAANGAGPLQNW
Description: as §1

[3] = molecular target: T2, human orexin-2 receptor; test: FLIPR Ca2+ Flux Assay, hOX2R FLIPR; assay type: cell-based; settings: CHO cells, 70 pM Ala-6,12 human orexin-A agonist
Description: as §1

[4] = molecular target: T1, hOX1R (orexin-1 receptor); test: radioligand binding assay, hOX1R BIND; settings: membranes from CHO cells expressing OX1 receptor; read-out: hOX1R BIND hKi
Description: In a typical experiment the OX1 and OX2 receptor antagonistic activity of the compounds of the present invention was determined in accordance with the following experimental method. For intracellular calcium measurements, Chinese hamster ovary (CHO) cells expressing the rat orexin-1 receptor or the human orexin-2 receptor, are grown in Iscove's modified DMEM containing 2 mM L-glutamine, […], 1% hypoxanthine-thymidine supplement, 100 U/ml penicillin, 100 μg/ml streptomycin and 10% heat-inactivated fetal calf serum (FCS). The cells are seeded at 20,000 cells/well into Becton-Dickinson black 384-well clear bottom sterile plates coated with poly-D-lysine. […] Within the Fluorescent Imaging Plate Reader (FLIPR, Molecular Devices), test compounds are added to the plate in a volume of 25 μl, incubated for 5 min and finally 25 μl of agonist is added. Fluorescence is measured for each well at 1 second intervals for 5 minutes and the height of each fluorescence peak is compared to the height of the fluorescence peak induced by 70 pM Ala-6,12 orexin-A with buffer in place of antagonist. […] Alternatively, compound potency can be assessed by a radioligand binding assay (described in Bergman et. al. Bioorg. Med. Chem. Lett. 2008, 18, 1425-1430) in which the inhibition constant (Ki) is determined in membranes prepared from CHO cells expressing either the OX1 or OX2 receptor. […]

[5] = membranes from CHO cells expressing OX2 receptor, read-out: hOX2R BIND hKi

T1 sequence (P56718 whole entry, looked up): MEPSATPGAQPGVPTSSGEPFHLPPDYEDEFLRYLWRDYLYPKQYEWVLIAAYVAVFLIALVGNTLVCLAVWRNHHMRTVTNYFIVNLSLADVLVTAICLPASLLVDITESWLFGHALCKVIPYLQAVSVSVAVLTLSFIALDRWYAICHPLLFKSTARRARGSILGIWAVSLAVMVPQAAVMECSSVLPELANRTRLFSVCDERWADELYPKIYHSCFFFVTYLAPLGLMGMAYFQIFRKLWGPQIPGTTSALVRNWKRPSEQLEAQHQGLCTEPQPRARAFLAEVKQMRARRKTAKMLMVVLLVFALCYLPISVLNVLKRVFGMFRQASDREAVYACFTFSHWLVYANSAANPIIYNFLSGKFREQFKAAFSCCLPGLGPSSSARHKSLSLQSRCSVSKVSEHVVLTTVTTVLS

COC(=O)c1c(C#N)ccnc1O[C@@H]1CC[C@@H](C)N(C(=O)c2c(C)cccc2-n2nccn2)C1 [Example 19, methyl 4-cyano-2-{[(3R,6R)-6-methyl-1-{[2-methyl-6-(2H-1,2,3-triazol-2-yl)phenyl]carbonyl}piperidin-3-yl]oxy}pyridine-3-carboxylate]
IC50 [1]: 208 nM
Ki [2, 5]: 0.26 nM
IC50 [3]: 16.9 nM

COC(=O)c1c(C#N)ccnc1O[C@@H]1CCC(C)N(C(=O)c2ccccc2-c2ncccn2)C1 (stereo partly shown) [Example 20]
IC50 [1]: 417 nM
Ki [2, 5]: 0.54 nM
IC50 [3]: 23.8 nM
Ki [4]: 30.8 nM

COC(=O)c1c(C#N)ccnc1O[C@@H]1CC[C@@H](C)N(C(=O)c2ccc(F)cc2-c2ncccn2)C1 [Example 22, methyl 4-cyano-2-({(3R,6R)-1-[(4-fluoro-2-pyrimidin-2-ylphenyl)carbonyl]-6-methylpiperidin-3-yl}oxy)pyridine-3-carboxylate]
IC50 [1]: 711 nM
Ki [2, 5]: 0.68 nM
IC50 [3]: 33.6 nM

COC(=O)c1c(C#N)ccnc1O[C@@H]1CC[C@@H](C)N(C(=O)c2cc(F)ccc2-c2ncccn2)C1 [Example 23, methyl 4-cyano-2-({(3R,6R)-1-[(5-fluoro-2-pyrimidin-2-ylphenyl)carbonyl]-6-methylpiperidin-3-yl}oxy)pyridine-3-carboxylate]
IC50 [1]: 417 nM
Ki [2, 5]: 0.47 nM
IC50 [3]: 32 nM

COC(=O)c1c(C#N)ccnc1O[C@@H]1CC[C@@H](C)N(C(=O)c2ccccc2-n2ncnn2)C1 [Example 25]
IC50 [1]: 1290 nM
Ki [2]: 0.76 nM
IC50 [3]: 7 nM

Reference: patent US9586950B2 (MERCK SHARP & DOHME CORP., priority 2012, dated 2017)
